According to article PMC12802110, “Biochemical characterization of the full-length isoform of soluble adenylyl cyclase” (The Journal of Biological Chemistry, 2025):
Where two headings read alike, the source gives them in different places.

Assays:
[1] = system: mouse and human sACfl and sACt; assay: In vitro adenylyl cyclase activity assay, one result stated for all four sAC proteins; assay type: biochemical; settings: for inhibition of cyclase activity at 10 mM: 10 mM test substance
human sACt = target: T1, human sACt (Homo sapiens, UniProt Q96PN6); assay: In vitro adenylyl cyclase activity assay (two-column method), heterologously expressed human sACt (GST); assay type: biochemical; settings: for EC50: 2 mM ATP
T1 construct: sACt contains only the C1 and C2 catalytic domains; GST; made in house
T1 sequence (Q96PN6 1-469 limits assumed): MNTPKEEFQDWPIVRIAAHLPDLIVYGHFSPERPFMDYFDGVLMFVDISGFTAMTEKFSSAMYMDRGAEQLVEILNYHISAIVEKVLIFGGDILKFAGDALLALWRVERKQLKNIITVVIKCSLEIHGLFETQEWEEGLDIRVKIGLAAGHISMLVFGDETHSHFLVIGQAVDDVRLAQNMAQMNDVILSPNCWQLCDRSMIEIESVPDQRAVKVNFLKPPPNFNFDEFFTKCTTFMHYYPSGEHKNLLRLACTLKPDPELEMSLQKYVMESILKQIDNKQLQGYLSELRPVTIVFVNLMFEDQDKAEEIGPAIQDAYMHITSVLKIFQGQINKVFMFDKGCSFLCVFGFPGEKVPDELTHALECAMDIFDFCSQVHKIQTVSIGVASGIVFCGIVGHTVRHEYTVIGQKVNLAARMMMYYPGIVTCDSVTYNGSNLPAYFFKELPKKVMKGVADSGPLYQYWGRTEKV

mouse sACfl = target: T2, mouse sACfl (Mus musculus, UniProt Q8C0T9); assay: In vitro adenylyl cyclase activity assay (two-column method), endogenous mouse sACfl (FLAG); assay type: biochemical; settings: for EC50: 2 mM ATP
T2 construct: Schematic of full-length (sACfl) and truncated (sACt) sAC isoforms; from tissue; host or cells: testes of homozygous double knock-in mice (FLAG pulldown, eluted with 3xFLAG peptide)
T2 sequence (Q8C0T9 whole entry, the tested form may be a part, canonical isoform): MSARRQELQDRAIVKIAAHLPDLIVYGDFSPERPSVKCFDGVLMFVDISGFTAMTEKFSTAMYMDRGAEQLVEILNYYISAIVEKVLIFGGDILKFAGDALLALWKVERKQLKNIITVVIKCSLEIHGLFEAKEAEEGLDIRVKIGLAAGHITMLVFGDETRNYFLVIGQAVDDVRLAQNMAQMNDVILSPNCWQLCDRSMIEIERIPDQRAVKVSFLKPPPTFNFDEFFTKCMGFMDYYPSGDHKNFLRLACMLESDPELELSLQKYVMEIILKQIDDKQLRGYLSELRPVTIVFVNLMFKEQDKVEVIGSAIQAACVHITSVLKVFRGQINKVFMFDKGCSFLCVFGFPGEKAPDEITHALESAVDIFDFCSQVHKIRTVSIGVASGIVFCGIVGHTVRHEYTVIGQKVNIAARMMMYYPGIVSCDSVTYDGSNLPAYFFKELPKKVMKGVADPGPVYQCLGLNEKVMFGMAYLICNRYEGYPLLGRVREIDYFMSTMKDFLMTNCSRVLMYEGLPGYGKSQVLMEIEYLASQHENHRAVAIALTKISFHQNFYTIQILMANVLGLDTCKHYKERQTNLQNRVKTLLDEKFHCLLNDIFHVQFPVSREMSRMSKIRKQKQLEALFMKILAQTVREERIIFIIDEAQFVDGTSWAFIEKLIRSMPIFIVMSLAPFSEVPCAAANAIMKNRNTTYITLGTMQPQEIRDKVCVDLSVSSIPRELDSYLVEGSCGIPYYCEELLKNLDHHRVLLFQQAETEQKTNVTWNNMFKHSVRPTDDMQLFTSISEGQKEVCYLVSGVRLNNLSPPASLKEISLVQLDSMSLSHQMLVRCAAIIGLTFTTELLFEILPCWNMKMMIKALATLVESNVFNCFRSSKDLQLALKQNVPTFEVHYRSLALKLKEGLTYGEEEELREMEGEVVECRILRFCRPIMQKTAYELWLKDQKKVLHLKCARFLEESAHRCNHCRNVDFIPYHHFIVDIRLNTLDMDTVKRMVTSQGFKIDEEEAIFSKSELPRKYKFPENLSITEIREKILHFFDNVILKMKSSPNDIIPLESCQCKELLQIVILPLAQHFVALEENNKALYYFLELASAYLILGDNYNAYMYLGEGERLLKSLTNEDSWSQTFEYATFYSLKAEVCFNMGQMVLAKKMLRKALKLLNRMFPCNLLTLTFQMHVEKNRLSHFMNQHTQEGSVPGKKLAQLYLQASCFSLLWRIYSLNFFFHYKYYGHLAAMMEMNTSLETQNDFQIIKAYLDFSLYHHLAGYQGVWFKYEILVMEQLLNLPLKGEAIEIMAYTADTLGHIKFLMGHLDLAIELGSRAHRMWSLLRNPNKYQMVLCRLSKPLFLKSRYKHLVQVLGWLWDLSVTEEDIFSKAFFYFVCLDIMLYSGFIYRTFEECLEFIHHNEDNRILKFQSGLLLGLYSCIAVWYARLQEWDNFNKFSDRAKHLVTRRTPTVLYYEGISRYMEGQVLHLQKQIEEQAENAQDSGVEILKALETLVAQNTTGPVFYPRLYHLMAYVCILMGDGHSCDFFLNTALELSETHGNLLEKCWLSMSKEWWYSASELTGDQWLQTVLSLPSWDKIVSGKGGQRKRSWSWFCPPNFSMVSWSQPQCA
Text: (§1) […]. To determine specific activities of endogenous mouse proteins, sACfl and sACt were quantitated by Western blot. For ATP kinetics, representative experiments are shown with SEM determined from normalized data.

human sACfl = target: T3, human sACfl (Homo sapiens, UniProt Q96PN6); assay: In vitro adenylyl cyclase activity assay (two-column method), heterologously expressed human sACfl (GFP nanobody purified, complexed with Hsp70); assay type: biochemical; settings: for EC50: 2 mM ATP
T3 construct: Schematic of full-length (sACfl) and truncated (sACt) sAC isoforms; eGFP (C, cleaved yes); His-tag (on eGFP) (C, cleaved yes); PreScission protease site (C); made in house; host or cells: Expi293 cells
T3 sequence (Q96PN6 whole entry, the tested form may be a part, canonical isoform): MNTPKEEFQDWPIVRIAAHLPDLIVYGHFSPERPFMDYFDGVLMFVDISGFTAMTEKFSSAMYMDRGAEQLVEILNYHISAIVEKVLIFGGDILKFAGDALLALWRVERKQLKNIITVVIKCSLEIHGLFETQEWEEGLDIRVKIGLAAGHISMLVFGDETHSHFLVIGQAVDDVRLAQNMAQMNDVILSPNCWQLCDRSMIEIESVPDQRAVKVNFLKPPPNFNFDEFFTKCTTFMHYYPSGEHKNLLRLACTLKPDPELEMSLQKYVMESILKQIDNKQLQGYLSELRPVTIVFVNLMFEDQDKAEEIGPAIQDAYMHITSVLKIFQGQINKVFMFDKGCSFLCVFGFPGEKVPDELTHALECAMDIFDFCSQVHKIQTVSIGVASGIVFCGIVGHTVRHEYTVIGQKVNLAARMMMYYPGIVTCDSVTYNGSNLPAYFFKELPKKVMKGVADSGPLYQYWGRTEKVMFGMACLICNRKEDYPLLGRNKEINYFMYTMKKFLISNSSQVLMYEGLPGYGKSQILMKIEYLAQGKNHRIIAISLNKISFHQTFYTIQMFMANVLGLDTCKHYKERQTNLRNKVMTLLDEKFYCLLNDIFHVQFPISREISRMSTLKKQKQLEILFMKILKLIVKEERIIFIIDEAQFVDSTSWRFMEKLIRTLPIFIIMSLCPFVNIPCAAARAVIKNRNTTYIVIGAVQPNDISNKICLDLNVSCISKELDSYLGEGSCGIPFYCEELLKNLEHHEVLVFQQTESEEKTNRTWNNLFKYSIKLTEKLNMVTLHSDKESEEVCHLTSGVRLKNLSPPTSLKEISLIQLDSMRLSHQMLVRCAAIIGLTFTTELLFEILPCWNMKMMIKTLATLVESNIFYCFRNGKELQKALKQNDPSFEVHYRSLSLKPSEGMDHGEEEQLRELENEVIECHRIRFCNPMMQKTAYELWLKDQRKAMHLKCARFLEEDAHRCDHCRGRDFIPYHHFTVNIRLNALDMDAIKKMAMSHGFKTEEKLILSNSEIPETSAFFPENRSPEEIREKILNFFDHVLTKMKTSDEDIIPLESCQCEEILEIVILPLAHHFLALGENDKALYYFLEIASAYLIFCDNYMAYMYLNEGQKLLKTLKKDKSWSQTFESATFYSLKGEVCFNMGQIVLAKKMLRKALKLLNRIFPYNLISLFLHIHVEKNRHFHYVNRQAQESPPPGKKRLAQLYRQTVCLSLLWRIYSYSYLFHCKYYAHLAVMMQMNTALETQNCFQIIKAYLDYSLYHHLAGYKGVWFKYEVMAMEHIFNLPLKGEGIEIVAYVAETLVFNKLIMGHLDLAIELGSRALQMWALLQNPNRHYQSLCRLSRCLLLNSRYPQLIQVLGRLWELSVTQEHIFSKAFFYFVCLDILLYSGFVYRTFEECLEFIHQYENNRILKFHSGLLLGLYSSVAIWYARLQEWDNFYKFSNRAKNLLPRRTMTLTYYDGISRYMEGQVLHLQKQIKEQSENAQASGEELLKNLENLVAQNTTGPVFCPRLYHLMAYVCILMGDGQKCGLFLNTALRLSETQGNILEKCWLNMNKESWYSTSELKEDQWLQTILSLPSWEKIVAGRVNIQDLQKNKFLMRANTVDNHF
T3 sequence (P0DMV8 whole entry partner, the tested form may be a part, canonical isoform): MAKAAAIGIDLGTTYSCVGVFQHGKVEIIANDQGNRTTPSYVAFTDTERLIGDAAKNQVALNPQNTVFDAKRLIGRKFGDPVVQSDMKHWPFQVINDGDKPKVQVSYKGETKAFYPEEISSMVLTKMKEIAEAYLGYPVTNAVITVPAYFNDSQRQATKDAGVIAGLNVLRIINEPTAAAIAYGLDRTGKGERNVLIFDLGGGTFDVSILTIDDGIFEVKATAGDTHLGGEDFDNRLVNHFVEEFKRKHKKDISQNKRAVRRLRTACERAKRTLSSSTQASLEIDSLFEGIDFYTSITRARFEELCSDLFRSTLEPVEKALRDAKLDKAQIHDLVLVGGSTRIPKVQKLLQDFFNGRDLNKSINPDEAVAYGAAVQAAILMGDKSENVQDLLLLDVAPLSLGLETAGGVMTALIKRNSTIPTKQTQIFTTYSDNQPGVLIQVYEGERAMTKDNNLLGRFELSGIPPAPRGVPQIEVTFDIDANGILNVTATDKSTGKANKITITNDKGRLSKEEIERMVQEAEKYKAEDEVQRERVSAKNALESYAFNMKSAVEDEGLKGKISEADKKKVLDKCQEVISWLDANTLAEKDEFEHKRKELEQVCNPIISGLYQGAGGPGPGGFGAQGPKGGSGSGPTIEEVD

sAC = system: sAC; design: method as in PMID 24100033; settings: read-out: KM of sAC's substrate ATP; cited from earlier work
mouse sACt = target: T4, mouse sACt (Mus musculus, UniProt Q8C0T9); assay: In vitro adenylyl cyclase activity assay (two-column method), endogenous mouse sACt (Strep); assay type: biochemical; settings: for EC50: 2 mM ATP
T4 construct: from tissue; host or cells: testes of homozygous double knock-in mice (Strep pulldown after FLAG depletion, eluted with biotin)
T4 sequence (Q8C0T9 1-471 isoform Q8C0T9-2): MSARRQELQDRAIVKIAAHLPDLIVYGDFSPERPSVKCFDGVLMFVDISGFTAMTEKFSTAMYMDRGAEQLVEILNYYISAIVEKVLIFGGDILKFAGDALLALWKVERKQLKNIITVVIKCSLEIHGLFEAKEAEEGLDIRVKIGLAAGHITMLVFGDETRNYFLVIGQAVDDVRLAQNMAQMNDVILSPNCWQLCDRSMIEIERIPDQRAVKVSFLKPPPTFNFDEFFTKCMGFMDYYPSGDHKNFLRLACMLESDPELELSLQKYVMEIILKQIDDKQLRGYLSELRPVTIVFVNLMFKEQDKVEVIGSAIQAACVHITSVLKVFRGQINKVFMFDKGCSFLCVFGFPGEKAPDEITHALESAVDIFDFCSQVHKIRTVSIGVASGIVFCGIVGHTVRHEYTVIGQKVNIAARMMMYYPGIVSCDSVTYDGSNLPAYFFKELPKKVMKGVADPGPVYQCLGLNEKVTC
Text: as §1

[2] = target: T5, mouse sAC isoforms (sACfl and sACt) (Mus musculus, UniProt Q8C0T9); assay: In vitro adenylyl cyclase activity assay, one result stated for both mouse sAC isoforms; settings: read-out: IC50, mouse sAC; text summary (Fig. 5)
T5 sequence (Q8C0T9 1-469 limits assumed): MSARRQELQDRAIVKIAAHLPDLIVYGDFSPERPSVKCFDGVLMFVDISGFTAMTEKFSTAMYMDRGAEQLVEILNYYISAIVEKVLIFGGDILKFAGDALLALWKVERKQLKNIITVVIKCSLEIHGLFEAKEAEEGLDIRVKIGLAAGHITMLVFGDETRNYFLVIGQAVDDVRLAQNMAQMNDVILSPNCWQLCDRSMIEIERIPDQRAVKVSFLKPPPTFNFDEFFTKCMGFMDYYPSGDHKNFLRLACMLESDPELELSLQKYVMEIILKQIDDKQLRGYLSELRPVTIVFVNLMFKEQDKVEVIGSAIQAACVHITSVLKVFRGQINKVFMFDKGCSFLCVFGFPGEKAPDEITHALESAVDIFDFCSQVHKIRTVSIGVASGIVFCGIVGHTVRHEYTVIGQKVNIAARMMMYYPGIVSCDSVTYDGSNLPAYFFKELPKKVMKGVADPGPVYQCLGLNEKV

[3] = 2 mM ATP, 10 mM MgCl2, 10 mM CaCl2, 40 mM NaHCO3
[4] = in the presence of Mg^2+, Ca^2+ and HCO3^- (20-40 mM MgCl2, 10 mM CaCl2, 40 mM NaHCO3), read-out: KM for substrate Mg^2+-ATP
[5] = 10 mM MgCl2, 40 mM NaHCO3, read-out: EC50 for Ca^2+
[6] = 10 mM MgCl2, 10 mM CaCl2, read-out: EC50 for HCO3^-
[7] = 10 mM MgCl2, 10 mM CaCl2, 40 mM NaHCO3

Nc1ncnc2c1ncn2[C@@H]1O[C@H](COP(=O)(O)OP(=O)(O)O)[C@@H](O)[C@H]1O [ADP]
inhibition of cyclase activity at 10 mM [1, 3]: ∼75% inhibition at 10 mM | inhibition of cyclase activity (in words) ([1]; at 10 mM): some inhibition

Nc1ncnc2c1ncn2[C@@H]1O[C@H](COP(=O)(O)O)[C@@H](O)[C@H]1O [AMP]
inhibition of cyclase activity at 10 mM [1, 3]: No inhibition at 10 mM | inhibition of cyclase activity (in words) ([1]; at concentrations up to 10 mM): no inhibition

Nc1ncnc2c1ncn2[C@@H]1O[C@H](COP(=O)(O)OP(=O)(O)OP(=O)(O)O)[C@@H](O)[C@H]1O [ATP]
Km (human sACt; [4]): 1800 ± 280 µM | Km (mouse sACfl; [4]): 2200 ± 390 µM | Km (human sACfl; [4]): 2200 ± 300 µM | Km (sAC): ~2000 µM | Km (mouse sACt; [4]): 2700 ± 250 µM

Nc1ncnc2c1ncn2[C@@H]1O[C@H](CO)[C@@H](O)[C@H]1O [Adenosine]
inhibition of cyclase activity at 10 mM [1, 3]: >50% inhibition at 10 mM | inhibition of cyclase activity (in words) ([1]; at 10 mM): some inhibition

Nc1ccn([C@@H]2O[C@H](COP(=O)(O)OP(=O)(O)OP(=O)(O)O)[C@@H](O)[C@H]2O)c(=O)n1 [CTP]
inhibition of cyclase activity at 10 mM [1, 3]: >50% inhibition at 10 mM

[Ca+2].[Cl-].[Cl-] [Ca^2+]
EC50 (human sACt; [5]): 1700 ± 160 µM | EC50 (mouse sACfl; [5]): 1300 ± 150 µM | EC50 (human sACfl; [5]): 1700 ± 150 µM | EC50 (mouse sACt; [5]): 1400 ± 110 µM

Nc1nc2c(ncn2[C@@H]2O[C@H](COP(=O)(O)OP(=O)(O)O)[C@@H](O)[C@H]2O)c(=O)[nH]1 [GDP]
inhibition of cyclase activity at 10 mM [1, 3]: ∼75% inhibition at 10 mM | inhibition of cyclase activity (in words) ([1]; at 10 mM): some inhibition

Nc1nc2c(ncn2[C@@H]2O[C@H](COP(=O)(O)O)[C@@H](O)[C@H]2O)c(=O)[nH]1 [GMP]
inhibition of cyclase activity at 10 mM [1, 3]: No inhibition at 10 mM | inhibition of cyclase activity (in words) ([1]; at concentrations up to 10 mM): no inhibition

Nc1nc2c(ncn2[C@@H]2O[C@H](COP(=O)(O)OP(=O)(O)OP(=O)(O)O)[C@@H](O)[C@H]2O)c(=O)[nH]1 [GTP]
inhibition of cyclase activity at 10 mM [1, 3]: ∼50% inhibition at 10 mM

O=C(O)O [HCO3^–]
EC50 (human sACt; [6]): 14000 ± 1000 µM | EC50 (mouse sACfl; [6]): 21000 ± 1900 µM | EC50 (human sACfl; [6]): 14000 ± 1200 µM | EC50 (mouse sACt; [6]): 19000 ± 1600 µM

O=c1[nH]cnc2c1ncn2[C@@H]1O[C@H](COP(=O)(O)OP(=O)(O)OP(=O)(O)O)[C@@H](O)[C@H]1O [ITP]
inhibition of cyclase activity at 10 mM [1, 3]: ∼50% inhibition at 10 mM

O=P(O)(O)OP(=O)(O)O [Pyrophosphate]
inhibition of cyclase activity at 1 mM ([1]; 1 mM test substance, 2 mM ATP, 10 mM MgCl2, 10 mM CaCl2, 40 mM NaHCO3): ~25% | inhibition of cyclase activity at 10 mM [1, 3]: > 90% | inhibition of cyclase activity (in words) ([1]; at 1 mM): slight inhibition | inhibition of cyclase activity (in words) ([1]; at concentrations >10 mM): fully inhibited

Nc1nc(Cl)cc(-c2nn(C(F)F)cc2Cc2ccccc2OCCN2CCOC[C@H]2CO)n1 [TDI-11861]
IC50 [2]: ~0.021 µM | IC50 (mouse sACfl; [7]): 0.0224 ± 0.0093 µM | IC50 (mouse sACt; [7]): 0.0211 ± 0.0045 µM

Cc1cn([C@H]2C[C@H](O)[C@@H](COP(=O)(O)OP(=O)(O)OP(=O)(O)O)O2)c(=O)[nH]c1=O [TTP]
inhibition of cyclase activity at 10 mM [1, 3]: ∼50% inhibition at 10 mM

O=c1ccn([C@@H]2O[C@H](COP(=O)(O)OP(=O)(O)OP(=O)(O)O)[C@@H](O)[C@H]2O)c(=O)[nH]1 [UTP]
inhibition of cyclase activity at 10 mM [1, 3]: ∼50% inhibition at 10 mM
